Experimental data taken from patent publication US20220031680A1, “Donecopride As Neuroprotective Agent In the Treatment of Neurodegenerative Diseases” (priority 2018, published 2022).
Marks after values point to notes of the source that are not given here.

What was measured:
[1] = tested on: rat primary hippocampal neurons injured with Aβ 1-42; experiment: Number of synapses (PSD95/SYN overlap) in primary hippocampal neurons injured with Aβ1-42; assay type: cell-based; settings: for Number of synapses (% of control): Aβ 1-42 (20 μM) in Table 5, 24 h; for number of synapses normalized by the number of neurons (formation of new synapses): Aβ 1-42 injured hippocampal neurons
Experimental: (§1) The hippocampal neurons were exposed with Aβ solutions (see below) after 17 days of culture. The Aβ1-42 preparation was done following the procedure described by Callizot et al. (2013) J. Neurosci. Res. 91706-716. Briefly, Aβ1-42 peptide was dissolved in the defined culture medium mentioned above, at an initial concentration of 40 μM. This solution was gently agitated for 3 days at 37° C. in the dark and immediately used after being properly diluted in culture medium to the concentrations used (20 μM (plate 1) or 2.5 μM (plate 2) corresponding to 2 μM or 0.25 μM of oligomers (AβO) respectively).
(§2) Donecopride fumarate was solved in culture medium and preincubated 1 h before Aβ application. Aβ1-42 preparation was added to a final concentration of 20 or 2.5 μM (=2 μM or 0.25 μM of AβO, evaluated by automatic Western Blot) diluted in control medium in presence of Donecopride.
(§3) 24 hours after intoxication, the hippocampal neurons were fixed by a cold solution of ethanol (95%) and acetic acid (5%) for 5 min at −20° C. After permeabilization with 0.1% of saponin, cells were incubated for 2 h with:
a) mouse monoclonal antibody anti post synaptic density 95 kDa (PSD95) at a dilution of 1/100 in PBS containing 1% fetal calf serum and 0.1% of saponin.
b) Rabbit polyclonal antibody anti-synaptophysin (SYN) at the dilution of 1/100 in PBS containing 1% fetal calf serum and 0.1% of saponin.
For each condition, 40 pictures per well were taken using ImageXpress (Molecular Devices) with 40× magnification. All images were taken with the same acquisition parameters.
Synapses evaluation was performed automatically by using Custom module editor (Molecular Devices).
The following endpoints were assessed: • Total number of synapses (overlapping between PSD95/SYN).
To assess the formation of synapses, the distribution of PSD-95, a post-synaptic marker, and synaptophysin, a pre-synaptic marker, was studied. A structure positive for both PD-95 and synaptophysin staining was considered as a synapse.
Injury: The hippocampal neurons were exposed with Aβ solutions (see below) after 17 days of culture. The Aβ1-42 preparation was done following the procedure described by Callizot et al. (2013) J. Neurosci. Res. 91:706-716. The batch number of the Aβ1-42 used in this study contains 10% of oligomers (quantification by WB as performed in Combes et al. (2015) J. Neurosci. Res. 93:633-643). Briefly, Aβ1-42 peptide was dissolved in the defined culture medium mentioned above, at an initial concentration of 40 μmol/1. This solution was gently agitated for 3 days at 37° C. in the dark and immediately used after being properly diluted in culture medium to the concentrations used (20 μmol/l or 2.5 μmol/l corresponding to 2 μmol/l or 0.25 μmol/l of oligomers (AβO) respectively). Aβ1-42 preparation was added to a final concentration of 20 or 2.5 μmol/l (respectively 2 μmol/l or 0.25 μmol/l of AβO, determined by automatic WB) diluted in control medium in presence of the compounds.
Immunostaining: PSD95 and SYN—After fixation and permeabilization, cells were incubated for 2 hours with: • mouse monoclonal antibody anti post synaptic density 95 kDa (PSD95) at dilution of 1/200 in PBS containing 1% fetal calf serum and 0.1% saponin; • rabbit polyclonal antibody anti-synaptophysin (SYN) at the dilution of 1/100 in PBS containing 1% fetal calf serum and 0.1% saponin.
For each condition, 40 pictures per well were taken using ImageXpress (Molecular Devices) with 40× magnification. All images were taken with the same conditions. Synapses evaluation were performed automatically by using Custom Module Editor® (Molecular Devices). The following endpoints were assessed: • Number of synapses (overlapping between PSD95/SYN)

[2] = tested on: rat primary hippocampal neurons injured with Aβ 1-42; experiment: Survival and neurite network of MAP-2 neurons in primary hippocampal neurons injured with Aβ1-42; assay type: cell-based; settings: for MAP-2 neurite network (% of control) / MAP-2 neurons (% of control) / Neurite network/MAP-2 neurons (% of control): Aβ 1-42 (20 μM) 24 h; for MAP-2 neurons (% of control): 1 h preincubation; for Neurite network/MAP-2 neurons (% of control): neurite network normalized by number of neurons
Experimental: Rat hippocampal neurons were cultured as described by Callizot et al. (2013) J. Neurosci. Res. 91706-716. Pregnant female rats of 17 days gestation (Rats Wistar; Janvier Labs France) were killed using a deep anesthesia with CO2 chamber followed by a cervical dislocation. Then, fetuses were removed from the uterus and immediately placed in ice-cold L15 Leibovitz medium with a 2% penicillin (10,000 U/ml) and streptomycin (10 mg/ml) solution (PS) and 1% bovine serum albumin (BSA). Hippocampal neurons were treated for 20 min at 37° C. with a trypsin-EDTA solution at a final concentration of 0.05% trypsin and 0.02% EDTA. The dissociation was stopped by adding Dulbecco's modified Eagle's medium (DMEM) with 4.5 g/l of glucose, containing DNAse I grade II (final concentration 0.5 mg/ml) and 10% fetal calf serum (FCS). Cells were mechanically dissociated by three forced passages through the tip of a 10-ml pipette and then centrifuged at 515×g for 10 min at 4° C. The supernatant was discarded, and the pellet was resuspended in a defined culture medium consisting of Neurobasal medium with a 2% solution of B27 supplement, 2 mmol/l of L-glutamine, 2% of PS solution, and 10 ng/ml of brain-derived neurotrophic factor (BDNF). Viable cells were counted in a Neubauer cytometer, using the trypan blue exclusion test. Cells were seeded at a density of 20,000 per well in 96-well plates precoated with poly-L-lysine and cultured at 37° C. in an air (95%)-CO2 (5%) incubator. The medium was changed every 2 days.
as §1, §2
Donecopride fumarate (Donecopride) was tested on one culture in a 96 well plate (6 wells per conditions). The compound was preincubated one hour before Aβ application. The following conditions were assessed:
as §3
a) chicken polyclonal antibody anti microtubule-associated-protein 2 (MAP-2), diluted at 1/1000 in PBS containing 1% fetal calf serum and 0.1% of saponin (this antibody allows the specific staining of neuronal cell bodies and neurites; and allow the study of neuronal cell death and neurite network).
For each condition, 30 pictures (representative of the whole well area) per well were taken using ImageXpress (Molecular Devices) at 20× magnification. All images were taken with the same acquisition parameters. Analyses were performed automatically by using Custom Module Editor (Molecular Devices).
The following endpoints were assessed: • Total number of neurons (neuron survival, number of MAP-2 positive neurons) • Neurite network (in μm of MAP-2 positive neurons) • area of tau in neurons (μm^2, overlapping with MAP-2 positive neurons).
All values are expressed as mean+/−SEM. Statistical analysis was performed by one-way ANOVA, followed by PLSD Fisher's test, p<0.05 were considered significant.
Rat hippocampal neurons were cultured as described by Callizot et al. (2013) J. Neurosci. Res. 91:706-716. […]

[3] = Aβ1-42 injured hippocampal neurons, Example 4

Compound: COc1cc(N)c(Cl)cc1C(=O)CCC1CCN(CC2CCCCC2)CC1 [Donecopride]
- Number of synapses (% of control) ([1]; 1 nM): 69 % of control
- Number of synapses (% of control) ([1]; 5 nM): 83* % of control
- Number of synapses (% of control) ([1]; 10 nM): 87* % of control
- Number of synapses (% of control) ([1]; 50 nM): 91* % of control
- Number of synapses (% of control) ([1]; 100 nM): 93* % of control
- Number of synapses (% of control) ([1]; 500 nM): 94* % of control
- number of synapses normalized by the number of neurons (formation of new synapses) ([1]; 500 nM): significantly promoted the formation of new synapses
- Number of synapses (% of control) ([1]; 1 μM): 85* % of control
- MAP-2 neurite network (% of control) ([2]; 1 nM): 64 % of control
- MAP-2 neurons (% of control) ([2]; 1 nM): 70 % of control
- Neurite network/MAP-2 neurons (% of control) ([2]; 1 nM): 90 % of control
- MAP-2 neurite network (% of control) ([2]; 5 nM): 69 % of control
- MAP-2 neurons (% of control) ([2]; 5 nM): 69 % of control
- Neurite network/MAP-2 neurons (% of control) ([2]; 5 nM): 99 % of control
- MAP-2 neurite network (% of control) ([2]; 10 nM): 68 % of control
- MAP-2 neurons (% of control) ([2]; 10 nM): 73 % of control
- Neurite network/MAP-2 neurons (% of control) ([2]; 10 nM): 96 % of control
- MAP-2 neurite network (% of control) ([2]; 50 nM): 71* % of control
- MAP-2 neurons (% of control) ([2]; 50 nM): 74 % of control
- Neurite network/MAP-2 neurons (% of control) ([2]; 50 nM): 91 % of control
- MAP-2 neurite network (% of control) ([2]; 100 nM): 73* % of control
- MAP-2 neurons (% of control) ([2]; 100 nM): 78* % of control
- Neurite network/MAP-2 neurons (% of control) ([2]; 100 nM): 93 % of control
- MAP-2 neurite network (% of control) ([2]; 500 nM): 79* % of control
- MAP-2 neurons (% of control) ([2]; 500 nM): 79* % of control
- Neurite network/MAP-2 neurons (% of control) ([2]; 500 nM): 100 % of control
- MAP-2 neurite network (% of control) ([2]; 1 μM): 76* % of control
- MAP-2 neurons (% of control) ([2]; 1 μM): 62* % of control
- Neurite network/MAP-2 neurons (% of control) ([2]; 1 μM): 124* % of control

Compound: COc1cc2c(cc1OC)C(=O)C(CC1CCN(Cc3ccccc3)CC1)C2 (centres unmarked) [Donepezil, reference compound]
- Number of synapses (% of control) ([1]; 1 μM): 88* % of control
- number of synapses normalized by the number of neurons (formation of new synapses) ([1]; Donepezil group (1 μM)): no effect
- MAP-2 neurite network (% of control) ([2]; 1 μM): 92* % of control
- MAP-2 neurons (% of control) ([2]; 1 μM): 82* % of control
- Neurite network/MAP-2 neurons (% of control) ([2]; 1 μM): 113* % of control

Compound: COc1cc(N)c(F)cc1C(=O)CCC1CCN(CC2CCCCC2)CC1 [Flucopride]
- neuroprotective effect (survival, neurite and synaptic network) [2, 3]: strong neuroprotective effect
- concentration of maximum effect on survival and neurite network ([2]; Aβ1-42 injured hippocampal neurons, bell shaped curve (FIGS. 1A-C)): 100 nM

Compound: COc1cc(N)c(F)cc1C(=O)CCC1CCN(CC2CCCC2)CC1 [MR33583]
- active concentrations (neuroprotective effect) ([2]; Aβ1-42 injured hippocampal neurons (FIGS. 7 and 8)): 50 to 500 nM
- effect on neurite network [2, 3]: strong effect on neurite network was observed at almost every tested dose
- neuroprotective effect (survival, neurite and synaptic network) [2, 3]: neuroprotective effect following a bell shaped curved

Compound: COc1cc(N)c(F)cc1C(=O)CCC1CCN(CC2CCCCCC2)CC1 [MR36014]
- concentration up to which the effect on synapses is significant ([1]; Aβ1-42 injured hippocampal neurons, Example 5 (FIG. 12)): ≤ 50 µM
- neuroprotective effect (survival, neurite network, Tau hyperphosphorylation) ([2]; pM doses, Aβ1-42 injured hippocampal neurons, Example 5 (FIG. 11)): neuroprotective effect was also observed at pM doses
